How the values were obtained:
[1] = tested on: adult patients with nocturia; test: Number of nocturnal voids, change from baseline to Day 28 (Study CS29 Part I); assay type: in vivo, human; conditions: for fewer nocturnal urinary voids per night compared to baseline before treatment (median): Day 28; for Change from baseline to final visit (Day 28) of nocturnal voids, mean / Change from baseline to final visit (Day 28) of nocturnal voids, median: ITT, Part I; for minimum effective dose (MED): primary endpoint nocturnal voids
Procedure: The term “nocturnal void” as used herein refers to a void occurring from 5 minutes after bedtime until rising in the morning with the intention of getting up.
(§1) All treatments were administered orally once per night approximately 1 hour prior to bedtime; subjects were instructed to limit their fluid intake prior to drug self-administration. […] Randomization was to be stratified by age (<65, ≥65 years) and by the absence/presence of nocturnal polyuria, defined as a ratio of nighttime urine volume/24-hour urine volume 33%. To achieve the desired number of subjects within each stratum, enrollment of subjects in a particular stratum (age and/or presence/absence of nocturnal polyuria) could be halted. If this was necessary, all investigative sites were to be informed in writing at least 1 week in advance to stop screening in a population of subjects.
A total of 750 subjects were planned to be enrolled, with approximately 150 subjects per treatment group. Part I of the study was conducted in 7 visits. Screening (Visit 1) occurred within 21 days of dosing (Day 1, Visit 2); subjects returned for follow-up visits on Days 4, 8, 15, 22, and 28 (end of Part I). Duration of treatment in Part I was 28 days.
Subjects who met the following inclusion criteria were eligible for the study: provided written informed consent prior to the performance of any study-related activity, defined as any procedure that would not have been performed during the normal management of the subject; and was a male or female subject, 18 years of age and older, with an average of ≥2 nocturnal voids per night determined via a 3-day frequency-volume chart during the screening period
All treatments were administered orally once per night approximately 1 hour prior to bedtime. Subjects were instructed to place the tablet under their tongue, without water. Subjects were provided with sufficient study drug for the duration of Part I.
The primary endpoints for efficacy assessment were: (1) change in mean number of nocturnal voids from baseline evaluation to final visit (Day 28); and (2) proportion of subjects with >33% reduction in the mean number of nocturnal voids from baseline to final visit (Day 28). A further description and corresponding data directed to the second primary endpoint (i.e., portion of subjects with >33% reduction in the mean number of nocturnal voids) are not provided herein.
Of the 799 randomized subjects in Part I, 757 subjects who received at least 1 dose of study drug and had follow-up data were included in the intent to treat (ITT) analysis dataset. […] All 799 randomized subjects received at least 1 dose of study drug (desmopressin or placebo) and had at least 1 safety assessment and, therefore, were included in the safety analysis dataset.
Missing values concerning number of nocturnal voids at Day 8, Day 15, Day 22, and Day 28 in Part I were imputed using last observation carried forward (LOCF). Missing values concerning sleep disturbance and urine volume (for average 24-hour urine volume and average nocturnal urine volume) were not imputed.

[2] = tested on: adult patients with nocturia; test: Duration of total sleep time, change from baseline to Day 28 (Part I); assay type: in vivo, human; conditions: final visit (Day 28)
Procedure: as §1
The secondary efficacy endpoints were: (1) durability of effect achieved in Part I; (2) change in initial period of undisturbed sleep, defined as the elapsed time in minutes from going to bed with the intention of sleeping to the time of awakening for the first nocturnal void; and (3) change in duration of total sleep time. Additional secondary endpoints were collected, e.g., change in nocturia-specific quality of life as assessed by scores on the International Consultation on Incontinence Modular Questionnaire—Noctuira and the Noctuira Quality of Life Questionnaire, change in quality of sleep as assessed by the global score of the Pittsburgh Sleep Quality Index, and change in overall quality of life as assessed by the short form—12v2. A description of the additional secondary efficacy endpoints and their accompanying data are not provided herein.
Total sleep time increased in all treatment groups in Part I; however, no pattern was observed by dose of desmopressin. Based on F-tests of effects, computed overall sleep duration and reported overall sleep duration were statistically significant predictors of change from baseline to Day 28 in total sleep time (p<0.0001).

[3] = 10 ug, all males with monitoring
[4] = 10 ug, females over 50 years of age
[5] = 10 ug, females over 65 years of age
[6] = 25 ug, all males with monitoring
[7] = 25 ug, females over 50 years of age
[8] = 25 ug, females over 65 years of age
[9] = 50 ug, all males with monitoring
[10] = 50 ug, females over 50 years of age
[11] = 50 ug, females over 65 years of age
[12] = 100 ug, all males with monitoring
[13] = 100 ug, females over 50 years of age
[14] = 100 ug, females over 65 years of age

## NC(=O)CC[C@@H]1NC(=O)[C@H](Cc2ccccc2)NC(=O)[C@H](Cc2ccc(O)cc2)NC(=O)CCSSC[C@@H](C(=O)N2CCC[C@H]2C(=O)N[C@H](CCCN=C(N)N)C(=O)NCC(N)=O)NC(=O)[C@H](CC(N)=O)NC1=O [desmopressin]
[1]; 10 μg, all females
  fewer nocturnal urinary voids per night compared to baseline before treatment (median): at least 1.0 voids per night
[1]; 10 ug, all females
  Change from baseline to final visit (Day 28) of nocturnal voids, mean: −1.15
  Change from baseline to final visit (Day 28) of nocturnal voids, median: −1.00
[1]; 10 ug, all groups
  Change from baseline to final visit (Day 28) of nocturnal voids, mean: −0.83
  Change from baseline to final visit (Day 28) of nocturnal voids, median: −0.67
[1]; [3]
  Change from baseline to final visit (Day 28) of nocturnal voids, mean: −0.66
  Change from baseline to final visit (Day 28) of nocturnal voids, median: −0.67
[1]; 10 ug, all males
  Change from baseline to final visit (Day 28) of nocturnal voids, mean: −0.54
  Change from baseline to final visit (Day 28) of nocturnal voids, median: −0.67
[1]; 10 μg, females over 50 years of age
  fewer nocturnal urinary voids per night compared to baseline before treatment (median): at least 1.0 voids per night
[1]; [4]
  Change from baseline to final visit (Day 28) of nocturnal voids, mean: −1.08
  Change from baseline to final visit (Day 28) of nocturnal voids, median: −1.00
[1]; [5]
  Change from baseline to final visit (Day 28) of nocturnal voids, mean: −0.93
  Change from baseline to final visit (Day 28) of nocturnal voids, median: −0.67
[1]; 25 μg, all females
  fewer nocturnal urinary voids per night compared to baseline before treatment (median): at least 1.0 voids per night
[1]; 25 ug, all females
  Change from baseline to final visit (Day 28) of nocturnal voids, mean: −1.22
  Change from baseline to final visit (Day 28) of nocturnal voids, median: −1.33
[1]; 25 ug, all groups
  Change from baseline to final visit (Day 28) of nocturnal voids, mean: −1.00
  Change from baseline to final visit (Day 28) of nocturnal voids, median: −1.00
[1]; [6]
  Change from baseline to final visit (Day 28) of nocturnal voids, mean: −0.91
  Change from baseline to final visit (Day 28) of nocturnal voids, median: −0.67
[1]; 25 ug, all males
  Change from baseline to final visit (Day 28) of nocturnal voids, mean: −0.83
  Change from baseline to final visit (Day 28) of nocturnal voids, median: −0.67
[1]; 25 μg, females over 50 years of age
  fewer nocturnal urinary voids per night compared to baseline before treatment (median): at least 1.0 voids per night
[1]; [7]
  Change from baseline to final visit (Day 28) of nocturnal voids, mean: −1.35
  Change from baseline to final visit (Day 28) of nocturnal voids, median: −1.33
[1]; 25 μg, females over 65 years of age
  fewer nocturnal urinary voids per night compared to baseline before treatment (median): at least 1.67 voids per night
[1]; [8]
  Change from baseline to final visit (Day 28) of nocturnal voids, mean: −1.27
  Change from baseline to final visit (Day 28) of nocturnal voids, median: −1.67
[1]; 50 μg, Day 28 (placebo 5%)
  proportion of subjects with >75% reductions in the mean number of nocturnal voids: 10%
[1]; 50 μg, Day 28 (placebo 20%)
  proportion of subjects with >50% reductions in the mean number of nocturnal voids: 28%
[1]; 50 μg, Day 28 (placebo 47%)
  proportion of subjects with >33% reductions in the mean number of nocturnal voids: 53%
[1]; 50 ug, all females
  Change from baseline to final visit (Day 28) of nocturnal voids, mean: −1.23
  Change from baseline to final visit (Day 28) of nocturnal voids, median: −1.00
[1]; 50 ug, all groups
  Change from baseline to final visit (Day 28) of nocturnal voids, mean: −1.18
  Change from baseline to final visit (Day 28) of nocturnal voids, median: −1.00
[1]; [9]
  Change from baseline to final visit (Day 28) of nocturnal voids, mean: −1.09
  Change from baseline to final visit (Day 28) of nocturnal voids, median: −1.00
[1]; 50 ug, all males
  Change from baseline to final visit (Day 28) of nocturnal voids, mean: −1.13
  Change from baseline to final visit (Day 28) of nocturnal voids, median: −1.00
[1]; [10]
  Change from baseline to final visit (Day 28) of nocturnal voids, mean: −1.15
  Change from baseline to final visit (Day 28) of nocturnal voids, median: −1.00
[1]; [11]
  Change from baseline to final visit (Day 28) of nocturnal voids, mean: −0.97
  Change from baseline to final visit (Day 28) of nocturnal voids, median: −1.00
[1]; 100 ug, all females
  Change from baseline to final visit (Day 28) of nocturnal voids, mean: −1.51
  Change from baseline to final visit (Day 28) of nocturnal voids, median: −1.33
[1]; 100 ug, all groups
  Change from baseline to final visit (Day 28) of nocturnal voids, mean: −1.43
  Change from baseline to final visit (Day 28) of nocturnal voids, median: −1.33
[1]; [12]
  Change from baseline to final visit (Day 28) of nocturnal voids, mean: −1.41
  Change from baseline to final visit (Day 28) of nocturnal voids, median: −1.67
[1]; 100 ug, all males
  Change from baseline to final visit (Day 28) of nocturnal voids, mean: −1.38
  Change from baseline to final visit (Day 28) of nocturnal voids, median: −1.33
[1]; [13]
  Change from baseline to final visit (Day 28) of nocturnal voids, mean: −1.44
  Change from baseline to final visit (Day 28) of nocturnal voids, median: −1.33
[1]; [14]
  Change from baseline to final visit (Day 28) of nocturnal voids, mean: −1.00
  Change from baseline to final visit (Day 28) of nocturnal voids, median: −1.00
[1]; females
  minimum effective dose (MED): 25 µg
[1]; males
  minimum effective dose (MED): 100 µg
[2]; 10 μg
  Total Sleep Time, Calculated Sleep Time, Change from Baseline, Mean: 9.7 min
  Total Sleep Time, Calculated Sleep Time, Change from Baseline, Median: 10.0 min
  Total Sleep Time, Reported Sleep Time, Change from Baseline, Mean: 7.8 min
  Total Sleep Time, Reported Sleep Time, Change from Baseline, Median: 10.0 min
[2]; 25 μg
  Total Sleep Time, Calculated Sleep Time, Change from Baseline, Mean: 19.7 min
  Total Sleep Time, Calculated Sleep Time, Change from Baseline, Median: 15.3 min
  Total Sleep Time, Reported Sleep Time, Change from Baseline, Mean: 15.9 min
  Total Sleep Time, Reported Sleep Time, Change from Baseline, Median: 10.0 min
[2]; 50 μg
  Total Sleep Time, Calculated Sleep Time, Change from Baseline, Mean: 24.2 min
  Total Sleep Time, Calculated Sleep Time, Change from Baseline, Median: 14.2 min
  Total Sleep Time, Reported Sleep Time, Change from Baseline, Mean: 24.9 min
  Total Sleep Time, Reported Sleep Time, Change from Baseline, Median: 20.0 min
[2]; 100 μg
  Total Sleep Time, Calculated Sleep Time, Change from Baseline, Mean: 9.7 min
  Total Sleep Time, Calculated Sleep Time, Change from Baseline, Median: 12.0 min
  Total Sleep Time, Reported Sleep Time, Change from Baseline, Mean: 19.0 min
  Total Sleep Time, Reported Sleep Time, Change from Baseline, Median: 20.0 min
